Experiments:
porcine tubulin = porcine tubulin (Sus scrofa, UniProt P02554); details: data from ref. 3; cited from earlier work
[1] = test system: 1A9 human ovarian carcinoma cells; experiment: Cytotoxicity, 72 h growth inhibition SRB (sulforhodamine-B) assay, parental cell line; format: cell-based
Method: The biological activities of the synthesized epothilones were evaluated through cytotoxicity, in vitro tubulin polymerization, and tubulin binding assays. Cytotoxicity was first evaluated in a set of ovarian carcinoma cell lines, including a parental cell line (IA9) and three drug-resistant cell lines, namely the paclitaxel-resistant strains (Giannakakou, P.; et al. J. Biol. Chem. 1997, 272, 17118–17125) IA9/PTX10 and IA9/PTX22 and the epothilone-resistant strain (Giannakakou, P.; et al. Proc. Natl. Acad. Sci. U.S.A. 2000, 97, 2904–2909) 1A9/A8. These resistant cell lines harbor distinct acquired β-tubulin mutations which affect drug-tubulin interaction and result in impaired taxane and epothilone-driven tubulin polymerization. The results of these biological investigations are summarized in Table 1 (Skehan, P.; et al. J. Natl. Cancer Inst. 1990, 82, 1107–1112). […]
(§1) The biological activities of the synthesized epothilones were evaluated through cell growth inhibition assays (cytotoxicity assays). Cytotoxicity was first evaluated in a set of ovarian carcinoma cell lines, including a parental cell line (IA9) and three drug-resistant cell lines, namely the paclitaxel-resistant cell lines IA9/PTX10 and IA9/PTX22 (Giannakakou, P.; et al. J. Biol. Chem. 1997, 272, 17118–17125.) and the epothilone-resistant cell line 1A9/A8 (Giannakakou, P.; et al. Proc. Natl. Acad. Sci. 2000, 97, 2904–2909.). […]

[2] = test system: KB-31 human epidermoid carcinoma cells; experiment: Cytotoxicity, 96 hour drug exposure, protein dye method, parent epidermoid line; format: cell-based; details: KB 3-1, KB-31 cells, 96 hour exposure
Method: (§2) The biological activities of the synthesized epothilones were evaluated through cytotoxicity, in vitro tubulin polymerization, and tubulin binding assays. Cytotoxicity was first evaluated in a set of ovarian carcinoma cell lines, including a parental cell line (IA9) and three drug-resistant cell lines, namely the paclitaxel-resistant strains (Giannakakou, P.; et al. J. Biol. Chem. 1997, 272, 17118–17125) IA9/PTX10 and IA9/PTX22 and the epothilone-resistant strain (Giannakakou, P.; et al. Proc. Natl. Acad. Sci. U.S.A. 2000, 97, 2904–2909) 1A9/A8. […]
as §1
(§3) FIG. 15 illustrates a table disclosing the tubulin polymerization potency and cytotoxicity of epothilones 1–8, 10–14, and paclitaxel against human epidermoid cancer cell lines. […] Relative resistance (RR) was calculated by dividing the IC50 value for the resistant cell line by that of the sensitive cell line. […]

KB-8511 cells [3] = details: previously shown, Tetrahedron 2002, 58, 6413; cited from earlier work
KB-8511 cells [4] = experiment: Cytotoxicity, 96 hour drug exposure, protein dye method, Pgp-overexpressing line; format: cell-based, human; details: versus KB-31; Table 2
Method: as §2, §1, §3

[5] = target: taxoid binding site of microtubules; experiment: Fluorescent taxoid (Flutax-2) displacement assay; details: 37° C., read-out: equilibrium dissociation constant Kd
Method: In addition to the above biological assays, the relative potency of each epothilone analogue was measured by the fluorescent taxoid displacement assay (Andreu, J. M.; Barasoain, I. Biochemistry 2001, 40, 11975–11984). The purpose of these experiments was to compare the equilibrium constants with which microtubules bind at their taxane site the epothilone analogues investigated. The inhibition of the binding of the well-characterized fluorescent taxoid Flutax-2 (Souto, A. A.; et al. Angew. Chem. Int. Ed. Engl. 1995, 34, 2710–2712; Diaz, J. F.; et al. J. Biol. Chem. 2000, 275, 26265–26276; Abal, M.; et al. Cell. Motil. Cytoskeleton 2001, 49, 1–15) to microtubules by each of the epothilone analogues was measured at 37° C. (FIG. 2). […]
FIG. 2 illustrates a chart showing the displacement of the fluorescent taxoid Flutax-2 (50 nM) from microtubule binding sites (50 nM) by competing ligands at 37° C. […] Representative curves for selected epothilone analogues (3, 4, and 8) are presented in this figure to exemplify how the binding affinities were measured for each compound in Table 3.
FIG. 16 illustrates a table disclosing binding affinities of epothilone analogues to the taxoid binding site of microtubules. […] The binding constant of the reference ligand Flutax-2 was measured by centrifugation and fluorescence anisotropy, at each temperature (Diaz, J. F.; et al. J. Biol. Chem. 2000, 275, 26265–26276).

[6] = test system: 1A9 human ovarian carcinoma cells; details: previous data, Tetrahedron 2002, 58, 6413; cited from earlier work

Chain of porcine tubulin (P02554 whole entry): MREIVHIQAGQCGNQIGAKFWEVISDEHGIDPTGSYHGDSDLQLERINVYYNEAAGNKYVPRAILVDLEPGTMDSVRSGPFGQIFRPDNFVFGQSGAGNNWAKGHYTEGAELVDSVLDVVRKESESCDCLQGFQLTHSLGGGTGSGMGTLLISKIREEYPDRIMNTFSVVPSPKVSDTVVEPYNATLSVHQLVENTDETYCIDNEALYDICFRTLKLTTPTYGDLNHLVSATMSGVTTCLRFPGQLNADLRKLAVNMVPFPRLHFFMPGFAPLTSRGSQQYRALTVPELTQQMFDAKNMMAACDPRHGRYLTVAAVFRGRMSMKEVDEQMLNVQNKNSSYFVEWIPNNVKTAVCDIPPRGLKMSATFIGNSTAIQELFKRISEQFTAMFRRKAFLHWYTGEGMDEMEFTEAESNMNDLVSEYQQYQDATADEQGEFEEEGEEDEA
Chain of porcine tubulin (P02550 whole entry partner): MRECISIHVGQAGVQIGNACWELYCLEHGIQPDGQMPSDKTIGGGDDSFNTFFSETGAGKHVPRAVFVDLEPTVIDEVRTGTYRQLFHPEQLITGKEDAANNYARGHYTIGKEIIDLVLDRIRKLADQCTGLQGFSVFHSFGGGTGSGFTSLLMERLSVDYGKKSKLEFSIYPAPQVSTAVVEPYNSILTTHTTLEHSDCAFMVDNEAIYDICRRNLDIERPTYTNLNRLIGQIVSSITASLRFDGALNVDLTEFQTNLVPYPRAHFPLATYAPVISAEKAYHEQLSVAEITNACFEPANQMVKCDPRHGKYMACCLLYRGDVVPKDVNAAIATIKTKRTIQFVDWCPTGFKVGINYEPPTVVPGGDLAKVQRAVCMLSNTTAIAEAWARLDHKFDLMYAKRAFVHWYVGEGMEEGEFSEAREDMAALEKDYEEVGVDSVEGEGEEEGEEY

C/C(=C\c1csc(C)n1)[C@@H]1C[C@@H]2O[C@]2(C)CCC[C@H](C)[C@H](O)[C@@H](C)C(=O)C(C)(C)[C@@H](O)CC(=O)O1 [Compound 2, epothilone B]
% TP (tubulin polymerization) (porcine tubulin): 90% | fold more active than epothilone A (1) ([1]; cis epoxide series, conclusion drawn collectively from all three assays): at least 10 fold

CC(=Cc1ccc(C)cn1)C1CC2CC2(C)CCCC(C)C(O)C(C)C(=O)C(C)(C)C(O)CC(=O)O1 (centres unmarked) [Compound 8]
IC50 [2]: 0.9 nM | IC50 ([1]; Homo sapiens, 1A9 cells, 72 h SRB assay): 1.7 nM

CC(=O)O[C@H]1C(=O)[C@@]2(C)[C@H]([C@H](OC(=O)c3ccccc3)[C@]3(O)C[C@H](OC(=O)[C@H](O)[C@@H](NC(=O)c4ccccc4)c4ccccc4)C(C)=C1C3(C)C)[C@]1(OC(C)=O)CO[C@@H]1C[C@@H]2O [paclitaxel]
fold less active against KB-8511 cells compared to KB-31 cells (KB-8511 cells [3]): 214 fold | % TP (tubulin polymerization) (porcine tubulin): 49% | fold less active against KB-8511 cells (KB-8511 cells [4]): 214 fold

C/C(=C\c1csc(C)n1)[C@@H]1C[C@@H]2O[C@@H]2CCC[C@H](C)[C@H](O)[C@@H](C)C(=O)C(C)(C)[C@@H](O)CC(=O)O1 [Compound 1, epothilone A]
% TP (tubulin polymerization) (porcine tubulin): 69% | Kd [5]: 34 ± 4 nM

CSc1nc(/C=C(\C)[C@@H]2C[C@@H]3O[C@]3(C)CCC[C@H](C)[C@H](O)[C@@H](C)C(=O)C(C)(C)[C@@H](O)CC(=O)O2)cs1 [Compound 3, 2-(thiomethyl)thiazole epothilone B]
fold more active than the parent epothilone B [6]: about 2 fold | Kd [5]: 0.64 ± 0.24 nM

From US7169930B2, “Analogs of epothilone” (The Scripps Research Institute, priority 2002, dated 2007)
